Several values for one entry are separate records, joined by “and”; a condition that tells them apart may be missing. Equal entries are not always repeated. Where two headings read alike, the source gives them in different places.
Assay: Pharmacokinetic studies of certain compounds in female Balb/c mice (Example 5)
Format: in vivo
Conditions: for concentration at 0.5 hr / concentration at 1 hr / concentration at 2 hr / concentration at 4 hr: BALB/c
Description: Pharmacokinetic studies were performed using Balb/c mice, 15-20 g, 6-9 weeks, female, N=9, purchased from Jihui Laboratory Animal Co. LTD. For compound I-29, Balb/c mice, 19-21 g, 9-11 weeks, female, N=9, were used. The mice were fasted overnight and fed at 4 h post dosing.
Animals were dosed via oral gavage (PO) or tail vein injection (IV) with compound. Sampling occurred at 0.083, 0.25, 0.5, 1, 2, 4, 8, and 24 h post dose (8 time points). The animals were restrained manually at the designated time points. Approx. […] of blood was taken from the animals via facial vein for semi-serial bleeding into tubes with K2EDTA. Blood samples were put on ice and centrifuged at 4° C. (2000 g, 5 min) to obtain plasma within 15 min after sample collection. Plasma samples were stored in dry ice temporarily and at approximately −70° C. until analysis.
For oral gavage, the compound was dosed as a suspension in 1% sodium carboxymethyl cellulose (CMC) and 0.2% Tween 80 in water. For 23.8 mg/kg and 30 mg/kg doses, 3 mg/mL was used; for 50 mg/kg doses, 5 mg/mL was used; and for 100 mg/kg doses, 10 mg/mL was used.
For IV administration, the compound was dosed as a solution in 5% DMSO, 5% Solutol HS15 and 90% saline. For 1 mg/kg and 1.48 mg/kg doses, 0.2 mg/mL was used.
Plasma samples were analyzed using LC-MS using a calibration curve of known concentrations.
The results of these studies are summarized in Tables 11-21 below and in FIGS. 2-8. […] BQL=below quantifiable limit for compound in female Balb/c mouse plasma samples. NA=not available. PK parameters were estimated by non-compartmental model using WinNonlin 8.2. If the adjusted rsq (linear regression coefficient of the concentration value on the terminal phase) was less than 0.9, T1/2 might not have been accurately estimated. F value was determined by the following equation: • If AUClast/AUCINF>80%:
F=(AUCINF-EX×DOSEIV)/(AUCINF-IV×DOSEEX)[…] • If AUClast/AUCINF<80% or AUCINF not available:
F=(AUClast-EX×DOSEIV)/(AUClast-IV×DOSEEX)*1000

[1] = mouse, plasma, I-2 PO 100 mg/kg

CC(C)Cc1sc(Nc2ncc(-c3cccs3)cc2C(=O)O)nc1C1=CCCCC1 [Compound I-2]
Plasma concentration Individual (I-2 PO 30 mg/kg, 0.083 hr, 30 mg/kg): 106 ng/mL and 211 ng/mL and 94.1 ng/mL | Plasma concentration Individual (I-2 PO 30 mg/kg, 0.25 hr, 30 mg/kg): 663 ng/mL and 622 ng/mL | Plasma concentration Individual (I-2 PO 30 mg/kg, 0.5 hr, 30 mg/kg): 1380 ng/mL and 1170 ng/mL | Plasma concentration Individual (I-2 PO 30 mg/kg, 1 hr, 30 mg/kg): 2110 ng/mL and 1590 ng/mL | Plasma concentration Individual (I-2 PO 30 mg/kg, 2 hr, 30 mg/kg): 2640 ng/mL and 2190 ng/mL | Plasma concentration Individual (I-2 PO 30 mg/kg, 4 hr, 30 mg/kg): 1600 ng/mL | Plasma concentration Individual (I-2 PO 30 mg/kg, 8 hr, 30 mg/kg): 233 ng/mL and 261 ng/mL | Plasma concentration Individual (I-2 PO 30 mg/kg, 24 hr, 30 mg/kg): 7.09 ng/mL and 5.63 ng/mL | Plasma concentration Individual (I-2 PO 100 mg/kg, 0.083 hr, 100 mg/kg): 406 ng/mL and 159 ng/mL and 182 ng/mL | Plasma concentration Individual (I-2 PO 100 mg/kg, 0.25 hr, 100 mg/kg): 1310 ng/mL and 2360 ng/mL and 885 ng/mL | Plasma concentration Individual (I-2 PO 100 mg/kg, 0.5 hr, 100 mg/kg): 3290 ng/mL and 2960 ng/mL | Plasma concentration Individual (I-2 PO 100 mg/kg, 1 hr, 100 mg/kg): 3010 ng/mL and 3120 ng/mL | Plasma concentration Individual (I-2 PO 100 mg/kg, 2 hr, 100 mg/kg): 4510 ng/mL and 3430 ng/mL | Plasma concentration Individual (I-2 PO 100 mg/kg, 4 hr, 100 mg/kg): 3380 ng/mL and 1660 ng/mL and 2310 ng/mL | Plasma concentration Individual (I-2 PO 100 mg/kg, 8 hr, 100 mg/kg): 914 ng/mL and 861 ng/mL | Plasma concentration Individual (I-2 PO 100 mg/kg, 24 hr, 100 mg/kg): 19.7 ng/mL and 18.8 ng/mL and 37.7 ng/mL | concentration at 0.5 hr (female, mouse, plasma, po, 30 mg/kg, I-2 PO 30 mg/kg, 0.5 hr, read-out: Plasma concentration Individual): 1160 ng/mL | concentration at 0.5 hr (female, mouse, plasma, po, 30 mg/kg, I-2 PO 30 mg/kg, 0.5 hr, read-out: Plasma concentration Mean): 1240 ng/mL | concentration at 1 hr (female, mouse, plasma, po, 30 mg/kg, I-2 PO 30 mg/kg, 1 hr, read-out: Plasma concentration Individual): 1700 ng/mL | concentration at 1 hr (female, mouse, plasma, po, 30 mg/kg, I-2 PO 30 mg/kg, 1 hr, read-out: Plasma concentration Mean): 1800 ng/mL | concentration at 2 hr (female, mouse, plasma, po, 30 mg/kg, I-2 PO 30 mg/kg, 2 hr, read-out: Plasma concentration Individual): 2150 ng/mL | concentration at 2 hr (female, mouse, plasma, po, 30 mg/kg, I-2 PO 30 mg/kg, 2 hr, read-out: Plasma concentration Mean): 2330 ng/mL | concentration at 4 hr (female, mouse, plasma, po, 30 mg/kg, I-2 PO 30 mg/kg, 4 hr, read-out: Plasma concentration Individual): 1340 ng/mL | concentration at 4 hr (female, mouse, plasma, po, 30 mg/kg, I-2 PO 30 mg/kg, 4 hr, read-out: Plasma concentration Mean): 1510 ng/mL | concentration at 0.083 h (female, Balb/c, mouse, plasma, po, 30 mg/kg, I-2 PO 30 mg/kg, 0.083 hr, read-out: Plasma concentration Mean): 137 ng/mL | concentration at 0.25 h (female, Balb/c, mouse, plasma, po, 30 mg/kg, I-2 PO 30 mg/kg, 0.25 hr, read-out: Plasma concentration Individual): 472 ng/mL | concentration at 0.25 h (female, Balb/c, mouse, plasma, po, 30 mg/kg, I-2 PO 30 mg/kg, 0.25 hr, read-out: Plasma concentration Mean): 586 ng/mL | concentration at 8 hr (female, Balb/c, mouse, plasma, po, 30 mg/kg, I-2 PO 30 mg/kg, 8 hr, read-out: Plasma concentration Individual): 244 ng/mL | concentration at 8 h (female, Balb/c, mouse, plasma, po, 30 mg/kg, I-2 PO 30 mg/kg, 8 hr, read-out: Plasma concentration Mean): 246 ng/mL | concentration at 24 h (female, Balb/c, mouse, plasma, po, 30 mg/kg, I-2 PO 30 mg/kg, 24 hr, read-out: Plasma concentration Individual): 4.28 ng/mL | concentration at 24 h (female, Balb/c, mouse, plasma, po, 30 mg/kg, I-2 PO 30 mg/kg, 24 hr, read-out: Plasma concentration Mean): 5.67 ng/mL | concentration at 0.083 h (female, Balb/c, mouse, plasma, po, 100 mg/kg, I-2 PO 100 mg/kg, 0.083 hr, read-out: Plasma concentration Mean): 249 ng/mL | concentration at 0.25 h (female, Balb/c, mouse, plasma, po, 100 mg/kg, I-2 PO 100 mg/kg, 0.25 hr, read-out: Plasma concentration Mean): 1520 ng/mL | concentration at 0.5 h (female, Balb/c, mouse, plasma, po, 100 mg/kg, I-2 PO 100 mg/kg, 0.5 hr, read-out: Plasma concentration Individual): 2800 ng/mL | concentration at 0.5 h (female, Balb/c, mouse, plasma, po, 100 mg/kg, I-2 PO 100 mg/kg, 0.5 hr, read-out: Plasma concentration Mean): 3020 ng/mL | concentration at 1 h (female, Balb/c, mouse, plasma, po, 100 mg/kg, I-2 PO 100 mg/kg, 1 hr, read-out: Plasma concentration Individual): 4550 ng/mL | concentration at 1 h (female, Balb/c, mouse, plasma, po, 100 mg/kg, I-2 PO 100 mg/kg, 1 hr, read-out: Plasma concentration Mean): 3560 ng/mL | concentration at 2 h (female, Balb/c, mouse, plasma, po, 100 mg/kg, I-2 PO 100 mg/kg, 2 hr, read-out: Plasma concentration Individual): 3810 ng/mL | concentration at 2 h (female, Balb/c, mouse, plasma, po, 100 mg/kg, I-2 PO 100 mg/kg, 2 hr, read-out: Plasma concentration Mean): 3920 ng/mL | concentration at 4 h (female, Balb/c, mouse, plasma, po, 100 mg/kg, I-2 PO 100 mg/kg, 4 hr, read-out: Plasma concentration Mean): 2450 ng/mL | concentration at 8 h (female, Balb/c, mouse, plasma, po, 100 mg/kg, I-2 PO 100 mg/kg, 8 hr, read-out: Plasma concentration Individual): 1080 ng/mL | concentration at 8 h (female, Balb/c, mouse, plasma, po, 100 mg/kg, I-2 PO 100 mg/kg, 8 hr, read-out: Plasma concentration Mean): 952 ng/mL | concentration at 24 h (female, Balb/c, mouse, plasma, po, 100 mg/kg, I-2 PO 100 mg/kg, 24 hr, read-out: Plasma concentration Mean): 25.4 ng/mL | AUC(0-inf) (mouse, plasma, I-2 PO 30 mg/kg): 12500 ng·h/mL | AUC(0-t) (mouse, plasma, I-2 PO 30 mg/kg): 12500 ng·h/mL | Cmax (mouse, plasma, I-2 PO 30 mg/kg): 2330 ng/mL | MRT inf (mouse, plasma, I-2 PO 30 mg/kg): 3.85 h | MRT last (mouse, plasma, I-2 PO 30 mg/kg): 3.81 h | Tmax (mouse, plasma, I-2 PO 30 mg/kg): 2 h | half-life (mouse, plasma, I-2 PO 30 mg/kg): 2.6 h | AUC(0-inf) [1]: 27200 ng·h/mL | AUC(0-t) [1]: 27100 ng·h/mL | Cmax [1]: 3920 ng/mL | MRT inf [1]: 4.73 h | MRT last [1]: 4.63 h | Tmax [1]: 2 h | half-life [1]: 3.04 h

Reference: US20240208961A1, “EIF4E INHIBITORS AND USES THEREOF” (PIC Therapeutics, Inc., priority 2022, published 2024)
